Laboratory results published in ChEMBL document CHEMBL1201862, “PubChem BioAssay data set” (2004).
Calls of active or inactive are those of the source.

Key:
[1] = target: Peroxisome proliferator-activated receptor gamma/Nuclear receptor coactivator 2 (Homo sapiens, UniProt P37231); assay: TR-FRET dose response biochemical High Throughput Screening assay for agonists of the steroid receptor coactivator 2 (SRC-2) recruitment by the peroxisome proliferator-activated receptor gamma (PPAR gamma): non-selective agonists. [Related pubchem assays: 1297, 1032 ]; assay type: functional
[2] = target: Peroxisome proliferator-activated receptor gamma/Nuclear receptor coactivator 1 (Homo sapiens, UniProt P37231); assay: TR-FRET dose response biochemical High Throughput Screening assay for agonists of the steroid receptor coactivator 1 (SRC-1) recruitment by the peroxisome proliferator-activated receptor gamma (PPAR gamma): non-selective agonists. [Related pubchem assays (depositor defined):AID1300, AID1808, AID504735, AID631]; assay type: protein assay
[3] = target: Peroxisome proliferator-activated receptor gamma/Nuclear receptor coactivator 3 (Homo sapiens, UniProt P37231); assay: TR-FRET dose response biochemical High Throughput Screening assay for agonists of the steroid receptor coactivator 3 (SRC-3) recruitment by the peroxisome proliferator-activated receptor gamma (PPAR gamma): non-selective agonists. [Related pubchem assays: 1301 (Confirmation screen.), 1048 (Primary screen.)]; assay type: functional
[4] = HepG2 cell cytotoxicity, dose response, cytotoxicity control, cherry-picked samples (AID 1159577); assay type: functional, cell-based
[5] = P. falciparum Dd2 growth inhibitors, dose response, SYBR Green, cherry-picked samples (AID 1159567); assay type: functional, cell-based
[6] = THP-1 cell cytotoxicity, dose response, cytotoxicity control for non-replicating M. tuberculosis project (AID 489025); assay type: functional
[7] = cytotoxicity in HEK-293T cells, dose response, cytotoxicity control for BCR NF-kB inhibitor project, luminescence, B-cell screen hits (AID 489021); assay type: functional, cell-based;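 also: HEK-293T cells carrying an NF-kB luciferase reporter; cells exposed to compound for about 14 hours before viability readout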
[8] = control 3'UTR Renilla luciferase suppression, dose response, counter-screen for Shn3 inhibitor project, cell-based, Clone20-Shn3RL, cherry-picked (AID 624133); assay type: functional
INS1 = assay: beta cell apoptosis inhibitors, cytokine rescue, dose response, luminescence, retest (AID 449756); assay type: functional, cell-based; conditions: Rattus norvegicus;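 also: cell death triggered by IL-1 beta plus TNF-alpha plus IFN-gamma mixture; protective hits raise ATP signal compared with cytokine alone wells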
[9] = HepG2 cell cytotoxicity, dose response, cytotoxicity control for Shn3 inhibitor project, CellTiter-Glo, cherry-picked (AID 624134); assay type: functional, cell-based
[10] = Shn3 3'UTR reporter inhibitors, dose response, cell-based, Clone20 osteoblasts, firefly luciferase, cherry-picked (AID 624132); assay type: functional;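 also: firefly luciferase luminescence from reporter carrying the Shn3 3'UTR in osteoblasts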
[11] = MC4R antagonists, dose response, counter-screen for LGR2 antagonist project, cell-based, plate reader, cherry pick (AID 743444); assay type: functional;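 also: transfected HEK 293 cells stimulated with alpha-MSH peptide; potency of inhibitors of the alpha-MSH evoked signal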
[12] = LGR2 antagonists, dose response, cell-based, HEK293, CRE-luciferase reporter, cherry pick, set 2 (AID 743343); assay type: functional;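 also: transfected cells were stimulated with diluted bursicon conditioned medium after compound addition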
Protein Tat = target: T1, Protein Tat (Human immunodeficiency virus type 1 group M subtype B (isolate HXB2)(HIV-1), UniProt P04608); assay type: functional;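 also: tat binding to TAR RNA read out by fluorescence polarization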
T1 sequence (P04608 whole entry): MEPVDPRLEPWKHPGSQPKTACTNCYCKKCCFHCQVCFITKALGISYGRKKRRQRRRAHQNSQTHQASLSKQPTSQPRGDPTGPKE

[13] = THP-1 cell cytotoxicity, dose response, cytotoxicity control for Vif-APOBEC3G degradation inhibitor project, THP-1 cells (AID 1117359); assay type: functional; conditions: Human immunodeficiency virus 1, THP-1
[14] = target: Eukaryotic translation initiation factor 4E (Mus musculus, UniProt P63073); assay: eIF4E–eIF4G protein interaction inhibitors, dose response, biochemical, TR-FRET (AID 855); assay type: functional;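 also: potency for disrupting eIF4E binding to eIF4GI seen as loss of FRET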
[15] = target: T2, Endoribonuclease toxin MazF (Escherichia coli K-12, UniProt P0AE70); assay: fluorescent RNA oligo signal without MazF, dose response, counter-screen for MazEF activator project, biochemical, fluorescence, single-stranded RNase substrate (AID 588502); assay type: functional
T2 sequence (P0AE70 whole entry): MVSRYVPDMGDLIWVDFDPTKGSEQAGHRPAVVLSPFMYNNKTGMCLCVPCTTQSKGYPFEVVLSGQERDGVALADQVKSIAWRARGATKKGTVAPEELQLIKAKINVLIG

[16] = target: T2, Endoribonuclease toxin MazF; assay: MazF toxin RNase activators, dose response, biochemical, fluorescence, single-stranded RNA substrate, uHTS hits (AID 588481); assay type: functional
[17] = intracellular Trypanosoma cruzi inhibitors in host cells – cell-based, plate reader, cherry-pick samples, set 3, dose response (AID 651818); assay type: functional;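 also: compounds incubated with infected cells for about four days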
Fatty acid synthase [18] = target: T3, Fatty acid synthase (Homo sapiens, UniProt P49327); assay: FAS thioesterase domain inhibitors, dose response, biochemical, kinetic fluorescence intensity (AID 624326); assay type: functional;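 also: rate of fluorescence rise from hydrolysis of a fluorogenic O-methyl fluorescein ester substrate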
Fatty acid synthase [19] = target: T3, Fatty acid synthase; assay: FAS thioesterase domain inhibitors, dose response, biochemical, endpoint fluorescence intensity, uHTS hits (AID 624327); assay type: functional;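 also: fluorescence from hydrolysis of an O-methyl fluorescein acyl ester substrate by the enzyme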
H9c2 = assay: cells; assay type: functional, cell-based; conditions: Rattus norvegicus, H9c2, Myocardium;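 also: confirmatory concentration-response retest of ultra-high-throughput screening hits for modulation of myocardial damage; cell death induced by hydrogen peroxide oxidative stress; compound pretreatment for 60 min then peroxide exposure for 2 h; potency is for protecting the cells against peroxide damage rather than for killing them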
[20] = HEp-2 cell cytotoxicity, dose response, cytotoxicity control for RSV inhibitor project, HTS (AID 2410); assay type: functional; conditions: human respiratory syncytial virus
[21] = cytotoxicity toward NIH3T3 fibroblasts, dose response, counter-screen, cell-based, ATP luminescence, mouse fibroblasts (AID 2010); assay type: functional;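 also: cells exposed to compound for about 90 hours before reading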
[22] = ZM109 Env clade C HIV-1 fusion inhibitors, dose response, HeLa effector, CEM target cells, luciferase, cherry-pick (AID 652058); assay type: functional, cell-based
[23] = inhibitors of HIV Env-driven cell fusion, dose response, cherry-pick (AID 652057); assay type: functional, cell-based
[24] = off-target signal loss in HeLa-CEM21 co-culture – HeLa F-luc CTL cells, cherry-picked, counter-screen for HIV-1 Env fusion inhibitor project, dose response (AID 652040); assay type: functional, cell-based;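 also: potency for signal decrease marking cytotoxic or nonspecific inhibition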
Cytochrome P450 3A4 = Cytochrome P450 3A4 (Homo sapiens, UniProt P08684);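 also: CYP3A4 tested as one member of a cytochrome P450 panel screen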
[25] = inhibitors of intracellular T. cruzi replication, confirmation, NIH3T3 host cells, beta-gal luminescence (AID 2044); assay type: functional, cell-based;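 also: intracellular parasites grown in NIH/3T3 mouse fibroblasts as host cells; luminescent beta-galactosidase reporter signal from transgenic T. cruzi replicating inside host cells; inhibitors lower the luminescence signal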
[26] = CEM21 lymphoblast cell cytotoxicity, dose response, cytotoxicity control for viral fusion inhibitor project, CellTiter-Glo luminescence, cherry-picked (AID 652042); assay type: functional, cell-based;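 also: potency for signal decrease meaning cytotoxicity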
cells = assay type: functional
[27] = target: T4, Heat shock factor protein 1 (Mus musculus, UniProt P38532); assay: inhibition of MG132-induced HSE-luciferase signal, confirmation, cell-based, NIH3T3, luminescence, dose retest (AID 2382); assay type: functional;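 also: NIH3T3 fibroblasts with HSF1-driven luciferase reporter stressed by proteasome inhibitor MG132; luminescence from HSF1-driven luciferase expression after 8 hours of MG132 stress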
T4 sequence (P38532 whole entry): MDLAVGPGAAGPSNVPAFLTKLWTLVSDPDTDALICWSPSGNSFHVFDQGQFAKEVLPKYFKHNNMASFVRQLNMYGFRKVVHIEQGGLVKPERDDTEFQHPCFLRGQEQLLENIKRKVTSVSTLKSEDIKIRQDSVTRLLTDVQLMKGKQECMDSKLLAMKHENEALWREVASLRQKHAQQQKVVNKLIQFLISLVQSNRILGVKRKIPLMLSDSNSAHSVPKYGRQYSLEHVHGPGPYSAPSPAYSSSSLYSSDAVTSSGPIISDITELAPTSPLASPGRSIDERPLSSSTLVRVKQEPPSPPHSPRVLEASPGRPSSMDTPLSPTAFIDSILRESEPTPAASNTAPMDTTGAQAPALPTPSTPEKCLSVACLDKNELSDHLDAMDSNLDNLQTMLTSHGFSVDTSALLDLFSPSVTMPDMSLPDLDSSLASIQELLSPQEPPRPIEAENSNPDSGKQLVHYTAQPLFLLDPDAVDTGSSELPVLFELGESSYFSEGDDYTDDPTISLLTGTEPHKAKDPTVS

[28] = inhibitors of firefly luciferase expression or activity, dose response, H4 neuroglioma cells, luminescence (AID 1990); assay type: functional, cell-based
[29] = inhibitors of SNCA 5'UTR-driven reporter translation, confirmation, H4 neuroglioma cells, luminescence (AID 1988); assay type: functional, cell-based
[30] = Luminescence Cell-Based Dose Response HTS to Identify Inhibitors of 5'UTR Stem-Loop Driven Prion Protein mRNA Translation in H4 Neuroglioblastoma Cells. [Related pubchem assays: 1827 (Project Summary), 1813 (Primary HTS)]; assay type: functional

Chain of Peroxisome proliferator-activated receptor gamma/Nuclear receptor coactivator 1 (P37231 whole entry): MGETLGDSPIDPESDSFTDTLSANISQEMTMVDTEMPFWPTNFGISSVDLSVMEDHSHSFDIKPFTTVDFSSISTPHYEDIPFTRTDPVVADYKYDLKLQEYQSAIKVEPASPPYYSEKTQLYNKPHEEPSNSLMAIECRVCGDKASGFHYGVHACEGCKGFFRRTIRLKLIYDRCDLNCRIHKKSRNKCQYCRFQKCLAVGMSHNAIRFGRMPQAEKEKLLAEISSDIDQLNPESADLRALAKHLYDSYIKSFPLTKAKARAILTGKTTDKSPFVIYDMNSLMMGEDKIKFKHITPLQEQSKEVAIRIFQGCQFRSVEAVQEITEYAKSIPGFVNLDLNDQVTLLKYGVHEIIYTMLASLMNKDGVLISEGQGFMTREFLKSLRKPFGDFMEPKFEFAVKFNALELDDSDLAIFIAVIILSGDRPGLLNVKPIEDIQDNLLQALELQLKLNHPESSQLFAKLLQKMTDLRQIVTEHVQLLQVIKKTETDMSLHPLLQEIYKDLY
Chain of Peroxisome proliferator-activated receptor gamma/Nuclear receptor coactivator 1 (Q15788 whole entry, further chain): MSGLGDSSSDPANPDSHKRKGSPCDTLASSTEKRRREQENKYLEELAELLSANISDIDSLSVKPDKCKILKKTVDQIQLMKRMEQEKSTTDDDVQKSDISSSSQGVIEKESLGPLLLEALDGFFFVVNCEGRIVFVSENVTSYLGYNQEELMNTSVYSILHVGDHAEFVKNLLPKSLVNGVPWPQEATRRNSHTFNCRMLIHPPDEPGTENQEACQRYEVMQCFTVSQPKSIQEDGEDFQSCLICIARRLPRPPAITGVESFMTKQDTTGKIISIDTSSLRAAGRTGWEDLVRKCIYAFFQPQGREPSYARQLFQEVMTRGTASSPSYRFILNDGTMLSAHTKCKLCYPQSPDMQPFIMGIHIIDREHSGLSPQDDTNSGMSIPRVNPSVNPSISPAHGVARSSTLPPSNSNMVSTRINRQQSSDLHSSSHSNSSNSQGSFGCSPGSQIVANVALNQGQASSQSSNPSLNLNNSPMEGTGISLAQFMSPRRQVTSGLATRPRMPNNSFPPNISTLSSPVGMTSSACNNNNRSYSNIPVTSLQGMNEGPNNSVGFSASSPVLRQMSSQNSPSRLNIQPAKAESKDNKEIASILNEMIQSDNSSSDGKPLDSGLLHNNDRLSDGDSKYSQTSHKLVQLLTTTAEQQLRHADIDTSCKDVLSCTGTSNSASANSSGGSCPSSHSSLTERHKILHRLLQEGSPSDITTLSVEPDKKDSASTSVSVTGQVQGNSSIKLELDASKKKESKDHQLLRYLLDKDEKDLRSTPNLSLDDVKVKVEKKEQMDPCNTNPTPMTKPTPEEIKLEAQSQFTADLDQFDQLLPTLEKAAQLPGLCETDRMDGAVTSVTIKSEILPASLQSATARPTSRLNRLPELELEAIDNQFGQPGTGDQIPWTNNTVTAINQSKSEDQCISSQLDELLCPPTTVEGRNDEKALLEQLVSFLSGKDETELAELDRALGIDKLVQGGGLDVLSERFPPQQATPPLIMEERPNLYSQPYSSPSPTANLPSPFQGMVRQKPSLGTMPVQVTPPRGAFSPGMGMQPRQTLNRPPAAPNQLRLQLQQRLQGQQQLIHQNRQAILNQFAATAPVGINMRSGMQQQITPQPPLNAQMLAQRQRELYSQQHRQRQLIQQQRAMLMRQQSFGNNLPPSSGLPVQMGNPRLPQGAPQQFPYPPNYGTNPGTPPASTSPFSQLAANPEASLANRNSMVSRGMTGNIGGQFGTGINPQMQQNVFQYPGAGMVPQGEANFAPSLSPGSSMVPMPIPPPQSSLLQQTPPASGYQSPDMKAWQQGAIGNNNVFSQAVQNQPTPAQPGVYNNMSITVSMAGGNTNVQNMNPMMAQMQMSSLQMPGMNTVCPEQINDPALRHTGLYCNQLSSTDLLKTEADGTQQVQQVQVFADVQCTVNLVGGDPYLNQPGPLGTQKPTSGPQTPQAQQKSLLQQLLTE
Chain of Peroxisome proliferator-activated receptor gamma/Nuclear receptor coactivator 3 (P37231 whole entry): as the sequence (P37231 whole entry) above
Chain of Peroxisome proliferator-activated receptor gamma/Nuclear receptor coactivator 3 (Q9Y6Q9 whole entry, further chain): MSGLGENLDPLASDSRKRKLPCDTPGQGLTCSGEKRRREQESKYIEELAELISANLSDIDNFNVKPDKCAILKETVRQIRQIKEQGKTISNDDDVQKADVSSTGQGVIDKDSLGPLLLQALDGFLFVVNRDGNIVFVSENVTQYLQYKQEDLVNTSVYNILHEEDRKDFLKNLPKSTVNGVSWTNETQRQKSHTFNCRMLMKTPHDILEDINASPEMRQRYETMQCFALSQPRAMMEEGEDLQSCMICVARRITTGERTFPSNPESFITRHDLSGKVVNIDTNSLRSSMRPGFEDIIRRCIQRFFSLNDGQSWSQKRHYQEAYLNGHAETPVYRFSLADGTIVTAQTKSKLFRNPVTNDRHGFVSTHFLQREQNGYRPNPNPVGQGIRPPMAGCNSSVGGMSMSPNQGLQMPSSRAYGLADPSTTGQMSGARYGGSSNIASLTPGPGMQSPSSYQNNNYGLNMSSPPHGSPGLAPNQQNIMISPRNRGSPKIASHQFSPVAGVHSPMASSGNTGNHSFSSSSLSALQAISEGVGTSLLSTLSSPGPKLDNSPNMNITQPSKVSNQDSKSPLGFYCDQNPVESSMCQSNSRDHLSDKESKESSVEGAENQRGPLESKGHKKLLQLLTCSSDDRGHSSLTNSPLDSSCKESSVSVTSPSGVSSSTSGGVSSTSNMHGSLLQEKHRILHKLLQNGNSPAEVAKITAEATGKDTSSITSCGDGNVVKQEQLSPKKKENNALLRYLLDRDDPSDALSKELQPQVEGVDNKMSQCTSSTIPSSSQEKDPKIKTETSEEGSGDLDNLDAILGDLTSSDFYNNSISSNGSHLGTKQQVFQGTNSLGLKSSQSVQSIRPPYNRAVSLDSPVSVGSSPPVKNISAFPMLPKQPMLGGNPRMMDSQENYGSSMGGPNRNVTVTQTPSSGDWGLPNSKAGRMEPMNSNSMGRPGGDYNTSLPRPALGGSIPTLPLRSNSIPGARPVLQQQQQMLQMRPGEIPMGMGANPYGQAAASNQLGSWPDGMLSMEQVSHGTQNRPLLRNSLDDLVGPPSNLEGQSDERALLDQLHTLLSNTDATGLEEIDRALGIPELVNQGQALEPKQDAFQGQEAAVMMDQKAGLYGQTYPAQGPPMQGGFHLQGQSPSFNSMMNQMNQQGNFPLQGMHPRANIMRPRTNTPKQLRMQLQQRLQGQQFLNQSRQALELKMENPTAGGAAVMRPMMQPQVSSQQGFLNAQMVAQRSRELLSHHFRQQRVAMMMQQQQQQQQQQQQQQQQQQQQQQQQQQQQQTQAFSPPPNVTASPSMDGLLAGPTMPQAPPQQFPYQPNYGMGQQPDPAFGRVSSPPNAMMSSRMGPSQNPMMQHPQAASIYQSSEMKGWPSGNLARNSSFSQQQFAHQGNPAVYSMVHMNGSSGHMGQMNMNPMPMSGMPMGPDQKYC
Chain of Cytochrome P450 3A4 (P08684 whole entry): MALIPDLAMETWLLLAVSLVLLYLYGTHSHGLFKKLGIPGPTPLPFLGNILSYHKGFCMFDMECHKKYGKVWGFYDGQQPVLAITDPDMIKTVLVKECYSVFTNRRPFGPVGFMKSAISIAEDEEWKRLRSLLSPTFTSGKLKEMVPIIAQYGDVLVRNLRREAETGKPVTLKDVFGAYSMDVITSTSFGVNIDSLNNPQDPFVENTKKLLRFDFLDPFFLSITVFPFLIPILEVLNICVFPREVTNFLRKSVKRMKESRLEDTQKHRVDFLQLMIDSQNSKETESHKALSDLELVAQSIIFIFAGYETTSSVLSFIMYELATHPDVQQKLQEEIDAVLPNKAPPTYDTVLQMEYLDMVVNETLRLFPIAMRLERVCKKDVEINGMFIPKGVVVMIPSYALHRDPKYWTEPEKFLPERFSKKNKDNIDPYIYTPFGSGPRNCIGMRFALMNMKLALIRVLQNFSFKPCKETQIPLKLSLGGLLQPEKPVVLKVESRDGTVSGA
Chain of Eukaryotic translation initiation factor 4E (P63073 whole entry): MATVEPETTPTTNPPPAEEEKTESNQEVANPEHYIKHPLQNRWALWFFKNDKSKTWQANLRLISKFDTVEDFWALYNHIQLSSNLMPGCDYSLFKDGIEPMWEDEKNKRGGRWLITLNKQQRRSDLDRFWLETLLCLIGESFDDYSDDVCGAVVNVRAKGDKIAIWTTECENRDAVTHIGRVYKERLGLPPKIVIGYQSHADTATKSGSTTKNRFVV

CC(C)CC(=O)NC(=S)Nc1cccc2nsnc12
EC50 [1]: 2.92 µM (active)
EC50 [2]: 1.81 µM (active)
EC50 [3]: 7.93 µM (active)

CO[C@H]1CN(C)C(=O)c2cc(NC(=O)c3ccc(-c4ccccc4)cc3)ccc2OC[C@@H](C)NC[C@H]1C
AC50 [4]: 19.8 µM (active)
AC50 [5]: 5.5 µM (active)

CC(C)(C)NCc1cc(Br)ccc1OCc1cccs1
CC50 [6]: > 40 µM (active)

O=C(Nc1cccc(S(=O)(=O)Nc2ccc(Cl)cc2)c1)c1ccc(Cl)nc1
IC50 [7]: 49.5 µM (inactive)
AC50 [8]: 11.7 µM (active)
AC50 (INS1): 3.31 µM (active)
AC50 [9]: 2.63 µM (active)
AC50 [10]: 0.606 µM (active)

Cc1nc2c(OCCC3CCCCC3)cccn2c1N(C)C(=O)CCC1CCCC1
AC50 [11]: 7.16 µM (active)
AC50 [12]: 9.83 µM (active)

Cc1cccc(C)c1NC(=O)CCS(=O)(=O)c1cccc2nsnc12
IC50 (Protein Tat): > 100 µM (active)

CS(=O)(=O)c1ccc(C(=O)Nc2nc(-c3ccco3)c(-c3ccco3)s2)cc1
CC50 [13]: > 40 µM (active)

N=c1oc2ccc(Cl)cc2cc1C(=O)NC1CCCCCC1
CC50 [6]: 24 µM (active)

COc1cc(CN(C(=O)c2ccco2)c2ccc(C)cc2)ccc1O
IC50 (Protein Tat): 9.05 µM (inconclusive)
IC50 [14]: > 64 µM (inactive)
CC50 [13]: > 40 µM (active)

O=C(NN1C(=O)/C(=C/c2nc3ccccc3[nH]2)SC1=S)c1ccccc1Cl
EC50 [1]: 44.5 µM (not active)
EC50 [2]: 25.8 µM (inactive)
EC50 [3]: > 79.4 µM (not active)

C[C@H](CO)N1C[C@H](C)[C@@H](CN(C)Cc2cccnc2)Oc2cc(/C=C/c3ccccc3)ccc2S1(=O)=O
AC50 [4]: > 39 µM (inactive)
AC50 [5]: 4.03 µM (active)

Cc1c(CCC(=O)O)c(=O)oc2cc3oc4c(c3cc12)CCCC4
IC50 [7]: > 80 µM (inactive)

CC(C)Sc1ncnc2c1oc1ccccc12
EC50 [1]: 26.2 µM (not active)
EC50 [2]: 39.2 µM (inactive)
EC50 [3]: > 79.4 µM (not active)

COC(=O)c1sc2nc(SCc3cccc(F)c3)n(N)c(=O)c2c1C
EC50 [15]: > 99 µM (inactive)
EC50 [16]: > 99 µM (inactive)

C[C@H]1CN([C@@H](C)CO)C(=O)Cc2cc(NC(=O)Nc3cccc4ccccc34)ccc2O[C@H]1CN(C)Cc1ccc(C(=O)Nc2ccccc2N)cc1
AC50 [17]: 3.39 µM (active)

Cc1nc2ccc([N+](=O)[O-])cc2c(=O)n1Cc1ccc([N+](=O)[O-])cc1
IC50 (Fatty acid synthase [18]): 8.3 µM (active)
IC50 (Fatty acid synthase [19]): 9.22 µM (active)

Cc1noc(C)c1S(=O)(=O)Nc1ccc2c(c1)CC(=O)N([C@@H](C)CO)C[C@@H](C)[C@@H](CN(C)Cc1ccc(C(=O)Nc3ccccc3N)cc1)O2
AC50 [17]: 2.56 µM (active)

CCOC(=O)N1CCC(NC(=O)c2ccc(OC)c(CN3CC(=O)N4CCCC4C3=O)c2)CC1 (configuration not stated)
IC50 (Protein Tat): > 100 µM (inconclusive)

C=CCn1c(SCc2ccc(Br)cc2F)nc2cc(C(=O)O)ccc2c1=O
IC50 (Fatty acid synthase [18]): 10.9 µM (active)
IC50 (Fatty acid synthase [19]): 11.4 µM (active)

C[C@@H]1CN([C@@H](C)CO)C(=O)Cc2cc(NS(=O)(=O)c3ccc(F)cc3)ccc2O[C@@H]1CN(C)S(=O)(=O)c1ccc(Cl)cc1
AC50 [17]: 3.3 µM (active)

O=C(Nc1ccc(-c2ccccc2)cc1)[C@@H]1[C@@H](CO)[C@@H]2Cn3c(cccc3=O)[C@@H]2N1CC1CCCCC1
AC50 [4]: > 39 µM (inactive)
AC50 [5]: 3.64 µM (active)

C[C@H]1CN([C@@H](C)CO)C(=O)Cc2cc(NC(=O)Nc3ccc4c(c3)OCO4)ccc2O[C@@H]1CN(C)Cc1ccc(C(F)(F)F)cc1
AC50 [17]: 4.86 µM (active)

Nc1nc(-c2c[nH]c3ccccc23)cs1
IC50 (H9c2): > 79 µM (inactive)
EC50 [1]: 24.2 µM (not active)
EC50 [2]: > 26.5 µM (inactive)
EC50 [3]: > 79.4 µM (not active)

CC(C)C[C@@]12C(=O)N(c3ccc(Br)cc3)C(=O)N1[C@H](c1ccc(Br)cc1)[C@@H]1C(=O)N(C(C)(C)C)C(=O)[C@@H]12
IC50 (Fatty acid synthase [18]): 14.6 µM (active)
IC50 (Fatty acid synthase [19]): 15.9 µM (active)

CCOC(=O)C1=C(C)N=C2c3ccccc3C(=O)C2C1c1ccc(Cl)cc1 (configuration not stated)
CC50 [20]: 28.7 µM (active)
EC50 [21]: 29.9 µM (active)
AC50 [22]: < 0.26 µM (active)
AC50 [23]: 12 µM (active)
AC50 [24]: 16.9 µM (active)
AC50 (Cytochrome P450 3A4): inconclusive
EC50 [25]: 2.06 µM (active)
AC50 [26]: 55.8 µM (active)

Cc1ccc(S(=O)(=O)N[N-][C+]2CCC(C(C)(C)C)CC2)cc1[N+](=O)[O-]
IC50 (Fatty acid synthase [18]): 80 µM (inactive)
IC50 (Fatty acid synthase [19]): 53 µM (inactive)

CCCn1c(CNc2ccccc2O)nc2ccccc21
IC50 (Protein Tat): > 100 µM (active)
IC50 (cells): 5.79 µM (active)

CC(C)(C)NC(=O)/C(=C/c1ccco1)c1ccccc1
IC50 (Protein Tat): > 100 µM (inconclusive)

CC(C)(C)n1ncc2c(=O)n(CC(=O)OCc3ccccc3)cnc21
EC50 [27]: 23.5 µM (active)
AC50 [11]: 2.3 µM (active)
AC50 [12]: 2.51 µM (active)

COc1cc(OC)cc(-c2cc3nc(C)c(CCC(=O)NCc4ccccc4)c(C)n3n2)c1
IC50 [7]: > 80 µM (inactive)
EC50 [28]: 8.43 µM (active)
EC50 [29]: 9.84 µM (active)
EC50 [30]: 9.35 µM (active)
